Experiments:
[1] = biological target: T1, SsbA (SaSsbA), single-stranded DNA-binding protein (Staphylococcus aureus, UniProt A0A0D1JHQ1); test: crystal structure ([…] Å) and intrinsic fluorescence quenching titration
T1 construct: gene ssb; recombinant His-tagged SaSsbA (167 aa, pET21b); aa 105–167 not observed in the crystal structure

[2] = biological target: T2, SsbA (SaSsbA), single-stranded DNA-binding protein (Staphylococcus aureus, UniProt A0A0D1JHQ1, R18A); test: intrinsic fluorescence quenching titration
T2 construct: gene ssb; recombinant His-tagged SaSsbA R18A (pET21b)
T2 sequence (A0A0D1JHQ1 1-167 R18A): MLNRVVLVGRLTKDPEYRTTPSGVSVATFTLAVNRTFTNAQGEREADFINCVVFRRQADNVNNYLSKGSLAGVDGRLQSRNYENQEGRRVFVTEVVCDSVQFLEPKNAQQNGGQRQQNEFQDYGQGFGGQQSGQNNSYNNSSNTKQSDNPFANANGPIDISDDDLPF

Compound O=c1[nH]cc(F)c(=O)[nH]1 [5-FU, 5-fluorouracil] has a Kd [1] of 55.9 ± 0.7 µM and a Kd [2] of 498 ± 13.5 µM.

From paper PMC10573954, “Crystal Structure of DNA Replication Protein SsbA Complexed with the Anticancer Drug 5-Fluorouracil” (International Journal of Molecular Sciences, 2023)
